Assay results taken from EP0146443A1, “(-)-1-(2-Fluorophenyl)-2-tertiobutylamino-1-ethanol and therapeutical use” (LABORATOIRE L. LAFON Société anonyme dite:, priority 1983, dated 1985).

Key:
Type in all cases: in vivo
souris [1] = assay: Spontaneous motility (actimeter); conditions: recorded for 0,5 h, 0.5 h after dosing
Method: (§1) Dans ces essais les produits à tester en solution dans de l'eau distillée (pH5) ont été administrés, par voie intrapéritonéale, sous un volume de 20 ml/kg chez la souris mâle, et, sous un volume de 5 ml/kg chez le rat mâle.
Une demi-heure après avoir reçu les produits à tester, les souris (6 par dose, 12 témoins) sont placées en actimètre où leur motilité est enregistrée pendant 0,5 h.

souris [2] = assay: Interaction with apomorphine; conditions: 0.5 h before apomorphine 16 mg/kg s.c.
Method: as §1
Des lots de 6 souris reçoivent chaque produit à tester une demi-heure avant l'injection sous-cutanée de 16 mg/kg d'apomorphine.

souris [3] = assay: Interaction with reserpine
Method: as §1
Quatre heures après l'injection intrapéritonéale de 2,5 mg/kg de réserpine, des lots de 6 souris reçoivent chaque produit à tester.

rat = assay: Global behaviour and reactivities, rat
Method: as §1
(§2) Des lots de 6 animaux sont observés avant, puis 0,25 h, 0,50 h, 1 h, 2 h, 3 h, et 24 h après administration des produits à étudier.

souris [4] = assay: Global behaviour and reactivities, mouse; conditions: for comportement et réactivités: doses of 2 and 0,5 mg/kg i.p.
Method: as §1, §2

souris [5] = assay: Interaction with oxotremorine; conditions: for effet hypothermisant de l'oxotrémorine / tremblements provoqués par l'oxotrémorine: 0.5 h before oxotremorine 0,5 mg/kg i.p.
Method: as §1
Chaque produit à tester est administré à des lots de 6 souris une demi-heure avant l'injection intrapéritonéale de 0,5 mg/kg d'oxotrémorine.

souris [6] = assay: Acute toxicity, intraperitoneal, mouse; conditions: I.P.
Method: as §1
Le CRL 40 996 est moins toxique que les CRL 40 995 et CRL 40 827. En effet si la DL-0 (dose maximale non mortelle) des trois substances est supérieure ou égale à 64 mg/kg (I.P.; souris), la DL-60 du CRL 40 996 est de l'ordre de 128 mg/kg (I.P.; souris)et la DL-100 des CRL 40 995 et CRL 40 827 est inférieure ou égale à 128 mg/kg (I.P.; souris).

souris [7] = assay: Behavioural despair (immobility in water); conditions: 0.5 h before immersion
Method: as §1
Une demi-heure après avoir reçu les produits à tester, des lots de 6 souris sont placés dans un bécher rempli d'eau sur une hauteur de 6 cm. On note la durée totale d'immobilité entre la 2ème et la 6ème minutes suivant l'immersion.

homme = assay: Clinical use in depressive states; conditions: oral route, human
Method: La posologie préconisée consiste à administrer par jour 3 comprimés ou gélules renfermant chacun 3 à 4 mg de CRL 40 996.

[8] = from the dose of 0,5 mg/kg i.p.
[9] = from the dose of 0.5 mg/kg i.p.
[10] = peripheral cholinergic symptoms after oxotremorine 0,5 mg/kg i.p.
[11] = 32 mg/kg i.p., 4 h after reserpine 2,5 mg/kg i.p.
[12] = doses of 0,5, 2 and 8 mg/kg i.p., 4 h after reserpine 2,5 mg/kg i.p.

Structure (SMILES): CC(C)(C)NCC(O)c1ccccc1F (single isomer, unassigned) [CRL 40 996, chlorhydratede (-)-1-(2-fluorophényl)-2-tertio-butylamino-1-éthanol]
- activité motrice spontanée (souris [1]; doses of 8 and 32 mg/kg i.p.): diminution très importante
- comportement de verticalisation et stéréotypies (souris [2]; [8]): sans modifier
- hypothermie induite par l'apomorphine (souris [2]; [8]): antagonisme net
- latence de l'effet sur l'hypothermie réserpinique (souris [3]; [9]): ~1 heure
- ptôsis (souris [3]; [9]): sans modifier
- hypothermie réserpinique (souris [3]; from the dose of 0.5 mg/kg i.p., effect does not clearly increase with dose): combat modérément
- sédation fugace (duration) (rat; 4 mg/kg i.p.): 0,25 h
- dyspnée (duration) (rat; 16 mg/kg i.p.): 1 h
- sédation (duration) (rat; 16 mg/kg i.p.): 0,5 h
- comportement et réactivités (rat; doses of 1 and 0,25 mg/kg i.p.): sans modifications sensibles par rapport aux animaux témoins
- diminution de la réactivité au toucher et du tonus musculaire (duration) (souris [4]; 8 mg/kg i.p.): 0,25 h
- hypothermie (souris [4]; 8 mg/kg i.p.): -1,8 °C
- hypothermie (duration) (souris [4]; 8 mg/kg i.p.): 0,25 h
- sédation (duration) (souris [4]; 8 mg/kg i.p.): 0,5 h
- diminution de la réactivité au toucher et du tonus musculaire (duration) (souris [4]; 32 mg/kg i.p.): 0,25 h
- disparition du "pinna reflex" (duration) (souris [4]; 32 mg/kg i.p.): 0,5 h
- hypothermie (souris [4]; 32 mg/kg i.p.): -2,0 °C
- sédation (duration) (souris [4]; 32 mg/kg i.p.): 0,5 h
- comportement et réactivités (souris [4]): sans modifications sensibles par rapport aux animaux témoins
- effet hypothermisant de l'oxotrémorine (souris [5]; i.p., dose not stated): an- tagonisé
- tremblements provoqués par l'oxotrémorine (souris [5]; i.p., dose not stated): ne sont pas modifiés
- défécation (souris [5]; [10]): semble diminuer
- salivation et lacrymation (souris [5]; [10]): sans modifier
- DL-0 (dose maximale non mortelle) (souris [6]): ≥ 64 mg/kg
- DL-60 (souris [6]): ~128 mg/kg
- durée d'immobilité (souris [7]; doses of 8 and 32 mg/kg i.p.): diminue modérément
- effet antidépresseur dans le traitement des états dépressifs (homme): bon agent antidépresseur

Structure (SMILES): CC(C)(C)NCC(O)c1ccccc1F (racemic) [CRL 40 827, chlorhydratede ( + )-1-(2-fluorophényl)-2-tertiobutylamino-1-éthanol]
- activité motrice spontanée (souris [1]; 8 mg/kg i.p.): ne modifie pas
- activité motrice spontanée (souris [1]; 32 mg/kg i.p.): semble la diminuer modérément mais pas significativement
- effet hypothermisant de l'oxotrémorine (souris [5]; i.p., dose not stated): an- tagonisé
- tremblements provoqués par l'oxotrémorine (souris [5]; i.p., dose not stated): ne sont pas modifiés
- signes de stimulation cholinergique (souris [5]; [10]): laissent inchangés
- DL-0 (dose maximale non mortelle) (souris [6]): ≥ 64 mg/kg
- DL-100 (souris [6]): ≤ 128 mg/kg

Structure (SMILES): CC(C)(C)NCC(O)c1ccccc1F (single isomer, unassigned) [CRL 40 995, chlorhydratede (+)-1-(2-fluorophényl)-2-tertio-butylamino-1-éthanol]
- activité motrice spontanée (souris [1]; doses of 8 and 32 mg/kg i.p.): diminue modérément
- action hypothermisante de l'apomorphine (souris [2]; doses of 8 and 32 mg/kg i.p.): s'oppose
- comportement de verticalisation et stéréotypies (souris [2]; doses of 8 and 32 mg/kg i.p.): sans modifier
- antagonisme de l'hypothermie réserpinique (animals showing it) (souris [3]; [11]): 5 souris sur 6
- perte du réflexe de redressement (et l'hypothermie qui en résulte) (souris [3]; [11]): 1 souris sur 6
- hypothermie réserpinique (souris [3]; [12]): s'oppose modérément
- ptôsis (souris [3]; [12]): sans modifier
- comportement et réactivités (rat; doses of 16, 4, 1 and 0,5 mg/kg i.p.): sans modifications sensibles par rapport aux animaux témoins
- comportement et réactivités (souris [4]): sans modifications sensibles par rapport aux animaux témoins
- respiration déprimée (duration) (souris [4]; doses of 32 and 8 mg/kg i.p.): 0,5 h
- tremblements provoqués par l'oxotrémorine (souris [5]; 32 mg/kg i.p., worded as 'seems'): potentialiser
- effet hypothermisant de l'oxotrémorine (souris [5]; i.p., dose not stated): n'est pas modifié
- signes de stimulation cholinergique (souris [5]; [10]): laissent inchangés
- DL-0 (dose maximale non mortelle) (souris [6]): ≥ 64 mg/kg
- DL-100 (souris [6]): ≤ 128 mg/kg
- durée de l'immobilité dite du "désespoir comportemental" (souris [7]; i.p., dose not stated): ne modifie pas
